From patent US5712160A, “Method of stimulating growth using neurotrophic peptides” (Board of Regents, The University of Texas System, priority 1995, dated 1998)
Several values for one entry are separate records, joined by “and”; a condition that tells them apart may be missing. Equal entries are not always repeated. Entries after “also recorded” stand apart in the source; their conditions may differ. Residues, ends and D or L forms follow the SMILES beside them. No end group written: not given here.

How the values were obtained:
[1] = biological target: labelled NGF (Homo sapiens, UniProt P01138); assay: Binding of labelled NGF to peptide fixed on a membrane disc/filter
Sequence of labelled NGF (P01138 122-241): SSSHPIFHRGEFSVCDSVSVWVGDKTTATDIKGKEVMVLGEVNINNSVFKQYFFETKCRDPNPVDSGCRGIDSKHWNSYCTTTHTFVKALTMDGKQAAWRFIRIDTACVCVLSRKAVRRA
Experimental: Membrane discs were placed into wells of 96 well plate. Peptide (for example 265 ng/ul) was spotted on each disc. Series dilutions of peptide were used to assure the binding. The disc was dried at 37° C. (or 40° C.) for 1 hour. […] 4% BSA TBS was added to each well. An amount of labelled NGF was added to each well, followed by incubation in 4% BSA TBS. Each disc was washed 4 times with 200 ul TBS (5 minute interval). The discs were transferred to counting vial and counted.
Peptide P4 was attached to a solid matrix at various concentrations and the binding of labeled NGF measured to these various concentrations of bound P4. It is noted that an apparent maximal binding was achieved when about 3 μg of peptide P4 were bound. FIG. 4 illustrates how differing amounts of peptide bound differing amounts of labelled NGF. Here the peptide is fixed to a filter in varying amounts, then exposed to constant amounts of labelled NGF and washed extensively to displace unspecifically bound radioactivity. […] The specific augmentation of NGF effects may thus be understood when small amounts of peptide are added.

[2] = system: PC12 cells transplanted into rat cortex; assay: Transplant of pretreated PC12 cells into lesioned rat brain, NGF receptor immunohistochemistry (Ig192); assay type: in vivo; details: cells treated in vitro two weeks; rat cortex stab wound; two weeks after transplant
Experimental: PC12 cells were treated with nerve growth factor (NGF) or peptide P4 in vitro for two weeks. The cells were then transplanted into a rat cortex at the site of the stab wound or 6-hydroxy dopamine-induced lesion. Two weeks after the transplant of the P12 cells, the animal brain was processed for immunohistochemistry by staining with monoclonal antibody to NGF receptor (Ig192). […] The stab-wound lesions carried out by inserting a 24 gauge needle into a stereotoxicly fixed animal so as to lesion motor cortex. Cells were then deposited with the same needle into the wound cavity.
The 6-hydroxydopamine lesions were carried out by injecting […] stereotoxicly into striatum with a needle two weeks prior to transplantation and/or treatment of animals.

[3] = system: PC12 cells; assay type: cell-based, rat
Experimental: Cell Culture. Stock cultures of PC12 cells are maintained in a medium consisting of RPMI 1640 supplemented with (v/v) 5% fetal calf serum and 5% horse serum ("complete medium"). At alternate feedings, media containing 1% PSN antibiotic mixture is used, consisting of 5 mg penicillin +5 mg streptomycin +10 mg neomycin/ml. Cells are grown in a humidified atmosphere containing 5% CO2. Cells are split once weekly in a 1:12 ratio by vigorous shaking and trituration. For experiments, PC12 cells are dislodged by shaking, centrifuged at 800×g, diluted in Puck's saline, counted in a hemocytometer, and plated on poly-D-lysine coated polystyrene tissue culture pates. For experiments to be performed in defined, serum-free medium, a modification of the N1 medium of Bottenstein et al. is used consisting of RPMI 1640 supplemented with insulin 5 ug/ml, transferrin 5 ug/ml, 20 nM progesterone, 100 μM putrescine, and 30 nM sodium selenite. Cells are plated in complete medium and allowed to attach overnight before washing twice with serum-free RPMI and addition of N1 medium. For experiments. examining effects of NGF on cell survival following serum deprivation, cells are plated in complete medium and allowed to attach overnight. Cells are then washed once with RPMI containing sheep anti-mouse beta-NGF to remove any residual NGF from serum. After washing once in RPMI, cells receive varying doses of NGF in RPMI. Media is changed on the third day of serum deprivation. On the fourth day, viability is assessed by ^35 S-methionine incorporation into trichloroacetic acid precipitable proteins. The effects of NGF on the response of PC12 cells to peptides is also examined by reduction of the dye 3, (4,5-dimethylthiazol-2-yl)-2,5-diphenyl-tetrazolium (MTT). For experiments using MTT, cells (1×10^4) are plated on poly-D-lysine coated 6 mm wells (96 well plates). Cells are allowed to attach overnight before addition of NGF and/or peptide. After 24 hr, media is removed and replaced with RPMI 1640 medium without serum. Following a 24 hour recovery period, each well is incubated with MTT for 4 hours at 37° C. Formaxan crystals are then solubilized in isopropanol containing 0.04N HCl and plates read on an ELISA reader using test and reference wavelengths of 570 and 630 nm, respectively. All statistics are performed by computer-assisted methods using the Number Cruncher for Statistical Sciences (NCSS) package. […]
The survival of PC12 cells was measured as a function of the amount of peptide P4.
Cells were plated out as mentioned above in RPMI 1640 without serum but in the presence of a fixed amount of NGF with varying amounts of peptide from 0.1 to 100 ug/ml (day one). […] The incorporation of ^35 S-Met into protein was determined by TCA precipitation and protein assay.

[4] = system: NGF receptor on PC12 cells
Experimental: Competitive binding assay. The following method of binding assay was carried out: precoat the 24-well plates were precoated with cytochrome C and the PC12 cells plated overnight as mentioned above. The ^125 I labeled NGF was added at 5 ng/ml in the presence of different doses of peptide from 4 ug/ml to 50 ug/ml. […] These peptides are very acidic and NGF is very basic.
In another experiment 24-well plates were precoated with poly-D-Lys at 0.06 mg/ml for 15 minutes and PC12 cells plated overnight at 1×10^5 cells/well in RPMI 1640 with serum conditioned media. The ^125 I-NGF was added at, e.g., 5 ng/ml, in the presence of varying amounts of peptide from 0.01 ug/ml to 50 ug/ml in Hepes buffer with 1 mg/ml BSA. The cells were incubated at rt. for 1 hour then washed with PBS three times and lysed with 0.5N NaOH. The radioactivity was then measured. Protein concentrations of the aliquots were determined by Lowry assay.

[5] = biological target: T1, NGFR-II (Homo sapiens, UniProt P08138); details: low affinity, high capacity binding site; read-out: equilibrium dissociation constant (Kd) of NGF binding; cited from earlier work
T1 sequence (P08138 29-427): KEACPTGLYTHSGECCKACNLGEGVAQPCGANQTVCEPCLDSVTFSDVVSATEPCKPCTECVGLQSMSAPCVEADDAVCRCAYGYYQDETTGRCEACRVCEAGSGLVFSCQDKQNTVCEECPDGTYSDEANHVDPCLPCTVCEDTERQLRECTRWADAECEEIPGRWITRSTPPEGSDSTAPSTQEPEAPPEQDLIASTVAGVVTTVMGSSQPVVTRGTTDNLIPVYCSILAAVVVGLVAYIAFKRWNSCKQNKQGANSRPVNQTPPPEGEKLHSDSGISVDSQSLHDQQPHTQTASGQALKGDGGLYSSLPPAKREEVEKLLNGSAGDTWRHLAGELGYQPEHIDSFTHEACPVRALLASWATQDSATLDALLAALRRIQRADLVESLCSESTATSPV

[6] = biological target: NGFR-I; details: high affinity, low capacity binding site; read-out: equilibrium dissociation constant (Kd) of NGF binding; cited from earlier work

## CC(C)[C@H](NC(=O)[C@@H](NC(=O)[C@H](CC(N)=O)NC(=O)[C@H](CCC(N)=O)NC(=O)[C@H](CCCCN)NC(=O)[C@H](CC(=O)O)NC(=O)[C@H](CCC(N)=O)NC(=O)[C@@H](N)CS)[C@@H](C)O)C(=O)N[C@@H](CS)C(=O)N[C@@H](CCC(=O)O)C(=O)N[C@@H](CCC(=O)O)C(=O)N[C@@H](CS)C(=O)N1CCC[C@H]1C(=O)N[C@@H](CCC(=O)O)C(=O)O [P4, Cys--Gln--Asp--Lys--Gln--Asn--Thr--Val--Cys--Glu--Glu--Cys--Pro--Glu--OH] (H-CQDKQNTVCEECPE-OH; N-terminus assumed)
[1]; peptide fixed to filter, constant amount of labelled NGF
  amount of bound peptide at apparent maximal binding of labeled NGF (FIG. 4): about 3 μg
[1]; varying amounts of peptide on filter, washed extensively
  binding of labelled NGF to fixed peptide: saturation indicative of specific binding of NGF to peptide
[2]
  NGF receptor immunostaining of transplanted PC12 cells (FIG. 8B vs 8A): significantly greater NGF receptor; also recorded: denser accumulation of NGF receptor sites
[3]; NGF concentrations of 0.1 to 10 ng/ml
  PC12 cell protein synthesis activity (FIG. 6B): trophic effects
[3]; in the presence of 2 ng/ml NGF
  peptide concentration at maximal PC12 cell survival (FIG. 3): 5 µg
[3]; peptide 0.1 ug/ml, serum-free, fixed amount of NGF, day four
  increase in protein synthesized (35S-Met incorporation): 20%
[4]; lower peptide concentrations measured (1.3 μg)
  binding of labeled NGF to PC12 cells (FIG. 5): amplified
[4]; peptide at concentrations higher than about 1.5 μg
  displacement of bound labeled NGF from PC12 cells (FIG. 5): effective in displacing bound labeled NGF
[4]; peptide within 0.01-0.1 ug/ml range, 125I-NGF 5 ng/ml, PC12 cells, 1 hour rt
  increase in binding of 125I-NGF to its receptor: 50%

## NGF: Nerve growth factor, a neurotrophic protein; only the β-NGF subunit has nerve growth promoting activity
[5]
  Kd: ~1 nM and 1 nM
[6]
  Kd: ~0.01 nM and 0.01 nM
[4]; 10 micrograms unlabeled NGF or peptide, various concentrations of free labeled NGF
  displacement of labeled NGF from PC12 cells (FIG. 1): more effective in displacing labeled NGF than most of the synthetic peptides

## Tyr--Cys--Gln--Asp--Lys--Gln--Asn--Thr--Val--Cys--Glu--Glu--Cys--Pro--Glu--OH (YCQDKQNTVCEECPE-OH; cysteine pairing not given here) [P5]
[3]; in the presence of 0.5 ng/ml NGF
  PC12 cell survival during serum deprivation (FIG. 6): enhancement of cell survival
